Test results: PubChem BioAssay (NCI)
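Following 48 hours of exposure in 96-well plates, responses at five concentrations were used to interpolate endpoints linearly. TGI denotes the concentration required for complete inhibition of growth.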

Assays:
Assay in all cases: NCI tumour cell line growth inhibition, 48 h
NCI/ADR-RES ovarian = system: NCI/ADR-RES ovarian
HOP-18 NSCLC = system: HOP-18 NSCLC
U251 CNS = system: U251 CNS
HCT-15 colon = system: HCT-15 colon
SNB-19 CNS = system: SNB-19 CNS
NCI-H23 lung = system: NCI-H23 lung
NCI-H226 lung = system: NCI-H226 lung
CAKI-1 renal = system: CAKI-1 renal
DMS 114 small cell lung = system: DMS 114 small cell lung
SW-620 colon = system: SW-620 colon
A498 renal = system: A498 renal
HCT-116 colon = system: HCT-116 colon
A549 NSCLC = system: A549 NSCLC
HOP-92 NSCLC = system: HOP-92 NSCLC
P388/ADR leukemia = system: P388/ADR leukemia
SN12K1 renal = system: SN12K1 renal
SNB-75 CNS = system: SNB-75 CNS
SNB-78 CNS = system: SNB-78 CNS
SF-268 CNS = system: SF-268 CNS
IGROV1 ovarian = system: IGROV1 ovarian
EKVX NSCLC = system: EKVX NSCLC
SK-OV-3 ovarian = system: SK-OV-3 ovarian
MOLT-4 leukemia = system: MOLT-4 leukemia
UACC-62 melanoma = system: UACC-62 melanoma
OVCAR-8 ovarian = system: OVCAR-8 ovarian
HCC-2998 colon = system: HCC-2998 colon
HT29 colon = system: HT29 colon
SF-539 CNS = system: SF-539 CNS
SK-MEL-28 melanoma = system: SK-MEL-28 melanoma
UACC-257 melanoma = system: UACC-257 melanoma
XF 498 CNS = system: XF 498 CNS
NCI-H522 lung = system: NCI-H522 lung
UO-31 renal = system: UO-31 renal
OVCAR-3 ovarian = system: OVCAR-3 ovarian
P388 leukemia = system: P388 leukemia
KM20L2 colon = system: KM20L2 colon
RXF 393 renal = system: RXF 393 renal
SK-MEL-2 melanoma = system: SK-MEL-2 melanoma
HL-60(TB) leukemia = system: HL-60(TB) leukemia
RPMI-8226 leukemia = system: RPMI-8226 leukemia
HOP-62 NSCLC = system: HOP-62 NSCLC
DLD-1 colon = system: DLD-1 colon
CCRF-CEM leukemia = system: CCRF-CEM leukemia
COLO 205 colon = system: COLO 205 colon
NCI-H460 lung = system: NCI-H460 lung
M19-MEL melanoma = system: M19-MEL melanoma
SK-MEL-5 melanoma = system: SK-MEL-5 melanoma
LOX IMVI melanoma = system: LOX IMVI melanoma
K-562 leukemia = system: K-562 leukemia
OVCAR-4 ovarian = system: OVCAR-4 ovarian
SN12C renal = system: SN12C renal
MALME-3M melanoma = system: MALME-3M melanoma
OVCAR-5 ovarian = system: OVCAR-5 ovarian
KM12 colon = system: KM12 colon
DMS 273 small cell lung = system: DMS 273 small cell lung
MCF7 breast = system: MCF7 breast
SF-295 CNS = system: SF-295 CNS
LXFL 529 NSCLC = system: LXFL 529 NSCLC
SR leukemia = system: SR leukemia
ACHN renal = system: ACHN renal
TK-10 renal = system: TK-10 renal
M14 melanoma = system: M14 melanoma
786-0 renal = system: 786-0 renal
RXF-631 renal = system: RXF-631 renal

CC(=O)OCc1cc(=O)n(C)c2c3c4c(cc12)c(C)cc(=O)n4CO3
TGI (NCI/ADR-RES ovarian): 10.9 µM | TGI (HOP-18 NSCLC): 51.5 µM | TGI (U251 CNS): 26.6 µM | TGI (HCT-15 colon): 37.8 µM | TGI (SNB-19 CNS): 72.8 µM | TGI (NCI-H23 lung): 5.01 µM | TGI (NCI-H226 lung): 5.5 µM | TGI (CAKI-1 renal): 33.9 µM | TGI (DMS 114 small cell lung): 6.11 µM | TGI (SW-620 colon): 15.6 µM | TGI (A498 renal): 5.3 µM | TGI (HCT-116 colon): 20 µM | TGI (A549 NSCLC): 21.1 µM | TGI (HOP-92 NSCLC): 10 µM | TGI (P388/ADR leukemia): 3.34 µM | TGI (SN12K1 renal): 5.57 µM | TGI (SNB-75 CNS): 4.69 µM | TGI (SNB-78 CNS): 14.2 µM | TGI (SF-268 CNS): 7.21 µM | TGI (IGROV1 ovarian): 11.5 µM | TGI (EKVX NSCLC): 11.2 µM | TGI (SK-OV-3 ovarian): 51 µM | TGI (MOLT-4 leukemia): 4.25 µM | TGI (UACC-62 melanoma): 3.58 µM | TGI (OVCAR-8 ovarian): 12.7 µM | TGI (HCC-2998 colon): 4.61 µM | TGI (HT29 colon): 8.81 µM | TGI (SF-539 CNS): 3.95 µM | TGI (SK-MEL-28 melanoma): 3.42 µM | TGI (UACC-257 melanoma): 5.42 µM | TGI (XF 498 CNS): 3.82 µM | TGI (NCI-H522 lung): 2.16 µM | TGI (UO-31 renal): 26.5 µM | TGI (OVCAR-3 ovarian): 7.74 µM | TGI (P388 leukemia): 4.99 µM | TGI (KM20L2 colon): 15.8 µM | TGI (RXF 393 renal): 3.33 µM | TGI (SK-MEL-2 melanoma): 3.65 µM | TGI (HL-60(TB) leukemia): 16.2 µM | TGI (RPMI-8226 leukemia): 11.1 µM | TGI (HOP-62 NSCLC): 4.3 µM | TGI (DLD-1 colon): 26.3 µM | TGI (CCRF-CEM leukemia): 12.7 µM | TGI (COLO 205 colon): 4.23 µM | TGI (NCI-H460 lung): 5.74 µM | TGI (M19-MEL melanoma): 4.21 µM | TGI (SK-MEL-5 melanoma): 4.18 µM | TGI (LOX IMVI melanoma): 8.6 µM | TGI (K-562 leukemia): 27.7 µM | TGI (OVCAR-4 ovarian): 6.56 µM | TGI (SN12C renal): 30.8 µM | TGI (MALME-3M melanoma): 2.72 µM | TGI (OVCAR-5 ovarian): 20.5 µM | TGI (KM12 colon): 41.7 µM | TGI (DMS 273 small cell lung): 3.86 µM | TGI (MCF7 breast): 17 µM | TGI (SF-295 CNS): 6.49 µM

COC(=O)c1nc(-c2ccc3c(n2)C(=O)C(N)=C(OC)C3=O)c(N)c(-c2ccc(OC)c(OC)c2O)c1C
TGI (NCI/ADR-RES ovarian): 3.09 µM | TGI (HOP-18 NSCLC): 17.8 µM | TGI (U251 CNS): 2.37 µM | TGI (HCT-15 colon): 2.68 µM | TGI (SNB-19 CNS): 2.22 µM | TGI (NCI-H23 lung): 1.38 µM | TGI (NCI-H226 lung): 1.41 µM | TGI (CAKI-1 renal): 3.28 µM | TGI (DMS 114 small cell lung): 2.31 µM | TGI (SW-620 colon): 6.88 µM | TGI (A498 renal): 3.17 µM | TGI (HCT-116 colon): 2.14 µM | TGI (A549 NSCLC): 2.76 µM | TGI (HOP-92 NSCLC): 5.79 µM | TGI (P388/ADR leukemia): 3.17 µM | TGI (SN12K1 renal): 3.38 µM | TGI (SNB-75 CNS): 3.73 µM | TGI (SNB-78 CNS): 8.38 µM | TGI (SF-268 CNS): 5.25 µM | TGI (IGROV1 ovarian): 4.77 µM | TGI (EKVX NSCLC): 7.95 µM | TGI (SK-OV-3 ovarian): 3.73 µM | TGI (UACC-62 melanoma): 1.27 µM | TGI (HCC-2998 colon): 0.221 µM | TGI (HT29 colon): 4.43 µM | TGI (SF-539 CNS): 1.39 µM | TGI (SK-MEL-28 melanoma): 2.77 µM | TGI (UACC-257 melanoma): 2.09 µM | TGI (XF 498 CNS): 2.85 µM | TGI (NCI-H522 lung): 2.43 µM | TGI (UO-31 renal): 2.46 µM | TGI (OVCAR-3 ovarian): 1.66 µM | TGI (P388 leukemia): 3.74 µM | TGI (KM20L2 colon): 5.97 µM | TGI (RXF 393 renal): 3.55 µM | TGI (SK-MEL-2 melanoma): 3.26 µM | TGI (HL-60(TB) leukemia): 6.32 µM | TGI (RPMI-8226 leukemia): 3.6 µM | TGI (HOP-62 NSCLC): 0.487 µM | TGI (DLD-1 colon): 3.42 µM | TGI (CCRF-CEM leukemia): > 100 µM | TGI (COLO 205 colon): 3.61 µM | TGI (M19-MEL melanoma): 1.26 µM | TGI (SK-MEL-5 melanoma): 1.96 µM | TGI (K-562 leukemia): 5.63 µM | TGI (OVCAR-4 ovarian): 3.06 µM | TGI (SN12C renal): 2.69 µM | TGI (MALME-3M melanoma): 1.74 µM | TGI (KM12 colon): 6.13 µM | TGI (DMS 273 small cell lung): 1.46 µM | TGI (MCF7 breast): 1.66 µM | TGI (SF-295 CNS): 2.02 µM

Cn1cc(NC(=O)c2cc(NC(=O)Nc3cc(C(=O)Nc4cc(C(=O)NCCC(=N)N)n(C)c4)n(C)c3)cn2C)cc1C(=O)NCCC(=N)N
TGI (HOP-18 NSCLC): > 100 µM | TGI (U251 CNS): 69.9 µM | TGI (HCT-15 colon): > 100 µM | TGI (LXFL 529 NSCLC): > 100 µM | TGI (SNB-19 CNS): > 100 µM | TGI (NCI-H23 lung): > 100 µM | TGI (CAKI-1 renal): 92.1 µM | TGI (DMS 114 small cell lung): > 100 µM | TGI (SW-620 colon): > 100 µM | TGI (A498 renal): 63.2 µM | TGI (HCT-116 colon): > 100 µM | TGI (A549 NSCLC): 83.4 µM | TGI (HOP-92 NSCLC): > 100 µM | TGI (SR leukemia): > 100 µM | TGI (SNB-75 CNS): 67.2 µM | TGI (SNB-78 CNS): 82 µM | TGI (SF-268 CNS): > 100 µM | TGI (IGROV1 ovarian): 68.7 µM | TGI (EKVX NSCLC): > 100 µM | TGI (SK-OV-3 ovarian): > 100 µM | TGI (MOLT-4 leukemia): > 100 µM | TGI (ACHN renal): 57.9 µM | TGI (UACC-62 melanoma): 53.2 µM | TGI (TK-10 renal): 54.7 µM | TGI (OVCAR-8 ovarian): 50 µM | TGI (HCC-2998 colon): > 100 µM | TGI (HT29 colon): > 100 µM | TGI (SF-539 CNS): 35.2 µM | TGI (SK-MEL-28 melanoma): > 100 µM | TGI (UACC-257 melanoma): 45.5 µM | TGI (XF 498 CNS): 45.8 µM | TGI (UO-31 renal): > 100 µM | TGI (OVCAR-3 ovarian): > 100 µM | TGI (KM20L2 colon): > 100 µM | TGI (RXF 393 renal): 42.9 µM | TGI (M14 melanoma): 57.2 µM | TGI (HL-60(TB) leukemia): > 100 µM | TGI (HOP-62 NSCLC): > 100 µM | TGI (DLD-1 colon): > 100 µM | TGI (CCRF-CEM leukemia): 77 µM | TGI (COLO 205 colon): 92.9 µM | TGI (NCI-H460 lung): 55.3 µM | TGI (M19-MEL melanoma): 83.1 µM | TGI (SK-MEL-5 melanoma): 53.1 µM | TGI (LOX IMVI melanoma): 70.1 µM | TGI (K-562 leukemia): > 100 µM | TGI (786-0 renal): 38.1 µM | TGI (OVCAR-4 ovarian): > 100 µM | TGI (SN12C renal): > 100 µM | TGI (MALME-3M melanoma): > 100 µM | TGI (OVCAR-5 ovarian): > 100 µM | TGI (KM12 colon): 36.8 µM | TGI (DMS 273 small cell lung): 29.6 µM | TGI (RXF-631 renal): 56.9 µM | TGI (SF-295 CNS): 86 µM
